Laboratory results published in patent US10239836B2, “Benzenecarbothioccyclopenta[c] pyrrole-1,3-dione compounds and process for synthesis thereof” (Council of Scientific & Industrial Research, priority 2014, dated 2019).
pIC50: −log10 of the molar value. Like-named read-outs stand apart in the source and are kept apart here.

Assays:
H1N1 virus = conditions: MDCK cells; Yang et al., Organic Letter 2013; cited from earlier work
[1] = test system: LPS induced NO generation in RAW 264.7 cells; assay: Inhibition of LPS induced NO generation (nitrite, Griess reagent); assay type: cell-based, Mouse; conditions: for pIC50: RAW 264.7 cells, LPS 1 μg/ml, 24 h, serum-free, read-out: NO inhibition (B) IC50; for Selectivity index (A/B): cytotoxicity IC50 / NO inhibition IC50, RAW 264.7 cells
Method: (§1) Mouse macrophage cell line RAW 264.7 was maintained in laboratory at 37° C. in
(§2) RPMI-1640 media supplemented with 10% heat-inactivated fetal bovine serum (FBS) and penicillin/streptomycin.
Nitrite, a stable oxidized product of NO, was measured in culture supernatant using Griess reagent (Sigma Aldrich) according to a previously reported method (2). After overnight seeding in 96-well plate (2×10^4 cells/well), RAW 264.7 cell was treated with lipopolysaccharide (LPS; Sigma) at a concentration of 1 μg/ml along with different doses of compounds (as determined from cytotoxicity assay) in serum-free culture for 24 h. Following treatment, media was collected and centrifuged at 2,000 rpm for 5 min to remove cellular debris. 50 μl of this media was then reacted with equal volume of Griess reagent for 15 min at room temperature in dark and absorbance was taken at 540 nm using Microplate reader (Biorad, USA). Nitrite concentrations were determined using standard solutions of sodium nitrite prepared in cell culture medium.

RAW 264.7 cells = assay: Cytotoxicity assay (MTT viability); assay type: cell-based, Mouse
Method: as §1, §2
(§3) Viability of cultured cells was determined by (4,5-dimethylthiazol-2-yl)-2,5-diphenyltetrazolium bromide (MTT; Sigma) as described earlier (1). RAW 264.7 was seeded in triplicate at a density of 2×10^4 cells per well on a 96-well plate. […] MTT solution (0.5 mg/ml) was then added to each well and incubate for 4 h at 37° C. At the end of the incubation period, the medium was removed and the resulting purple formazan was solubilized with acidic isopropanol (0.1 N HCl in absolute isopropanol), and the absorbance was read at 570 nm using Biorad Microplate reader (Biorad, USA).

[2] = Cytotoxicity assay (MTT viability); assay type: cell-based, Mouse; conditions: mouse; RAW 264.7 cells, MTT, 24 h treatment, serum free
Method: as §1, §2, §3

SMILES | inhibitory activities against the H1N1 virus (H1N1 virus) | pIC50 [1] | pIC50 (RAW 264.7 cells) | pIC50 ([1]; Mus musculus, RAW264.7) | Selectivity index (A/B) [1] | melting point | IC50 at 24 h [2]
O=C(S[C@@]12CC[C@@H](O)[C@@H]1C(=O)NC2=O)c1ccc(O)cc1 [Nitrosporeusine B] | exhibited inhibitory activities | – | – | – | – | – | –
CC(=O)O[C@@H]1CCC2=C1C(=O)NC2=O [(−)-5, (R)-1,3-dioxo-1,2,3,4,5,6-hexahydrocyclopenta[c]pyrrol-4-yl] | – | 3.06 | 3.89 | – | – | – | –
O=C(S[C@@]12CC[C@@H](O)[C@@H]1C(=O)NC2=O)c1ccccc1 (relative stereo) [Compound 16, S-((3aS*,6R*,6aR*)-6-Hydroxy-1,3-dioxohexahydrocyclopenta[c]pyrrol-3a(1H)-yl) benzothioate] | – | – | – | 4.19 | 261.7025 | 180 to 182 °C | 17100 µM
O=C(S[C@@]12CC[C@@H](O)[C@@H]1C(=O)NC2=O)c1ccccc1Cl (relative stereo) [Compound 14, S-((3aS*,6R*,6aR*)-6-Hydroxy-1,3-dioxohexahydrocyclopenta[c]pyrrol-3a(1H)-yl) 2-chlorobenzothioate] | – | – | – | 3.75 | 4.022 | 154 to 158 °C | 717 µM
O=C(S[C@@]12CC[C@H](O)[C@@H]1C(=O)NC2=O)c1ccccc1Cl (relative stereo) [Compound 13, S-((3aS*,6S*,6aR*)-6-Hydroxy-1,3-dioxohexahydrocyclopenta[c]pyrrol-3a(1H)-yl) 2-chlorobenzothioate] | – | – | – | 3.90 | 5.245 | 173 to 174 °C | 668 µM
CC(=O)S[C@@]12CC[C@@H](O)[C@@H]1C(=O)NC2=O (relative stereo) [Compound 8, S-((3aS*,6R*,6aR*)-6-Hydroxy-1,3-dioxohexahydrocyclopenta[c]pyrrol-3a(1H)-yl) ethanethioate] | – | – | – | 3.08 | 1.029 | 120 to 129 °C | 857 µM
O=C(S[C@@]12CC[C@H](O)[C@@H]1C(=O)NC2=O)c1ccc(O)cc1 [Nitrosporeusine A] | exhibited inhibitory activities | – | – | – | – | – | –
O=C(S[C@@]12CC[C@@H](O)[C@@H]1C(=O)NC2=O)c1ccc(F)cc1 (relative stereo) [Compound 11, S-((3aS*,6R*,6aR*)-6-Hydroxy-1,3-dioxohexahydrocyclopenta[c]pyrrol-3a(1H)-yl) 4-fluorobenzothioate] | – | – | – | 3.50 | 1.49 | 184 to 186 °C | 474 µM
